From patent EP0278501A2, “Nucleotide analogs, their production and use” (Takeda Chemical Industries, Ltd., priority 1987, dated 1988)
In brackets after ≈: the same amount, converted by molar mass.

Experiments:
[1] = test system: cyclic AMP phosphodiesterase originated from a cow brain; assay: Reaction with cyclic AMP phosphodiesterase; assay type: biochemical; details: enzyme originated from a cow brain
[2] = test system: Herpes Simplex Virus Type 1, HF Strainn; assay: Inhibition of viral cytopathogenic effect in infected Vero cells; assay type: cell-based
Source text: Inhibitory Effect of Antiviral Compounds against Herpes Simplex Virus Type 1, HF Strainn
Vero cells were infected with 100 TCIDso(50% tissue-culture infected doses) of viruses and cultured with various concentrations of the compounds.

[3] = test system: Vero cells; assay: Cytotoxicity in non-infected control culture (visible disruption of normal cell morphology); assay type: cell-based; details: minimum concentration to cause a visible disruption of normal cell morphology; non-infected Vero control culture, three days; 4320 min
[4] = as above; assay type: cell-based; details: monkey, vero cells; minimum concentration to cause a visible disruption of normal cell morphology; non-infected Vero control culture, three days; read-out: Cytotoxicity^b)

Molecule: 2'-Deoxyaristeromycin-3',6'-cyclic phosphate [Example 1]
- conversion by cyclic AMP phosphodiesterase [1]: changed to 2'-deoxyaristeromycin-mono phosphate

Molecule: Carbocyclic•2'-deoxyguanosine 6'-triphosphate
- ID50^a) ([2]; concentration required to reduce the viral cytopathogenic effect by 50%, Vero cells infected with 100 TCID50, observed three days after the infection, 4320 min): 0.4 µg/mL
- Cytotoxicity^b) [3]: 50 µg/mL

Molecule: Nc1nc2c(ncn2[C@@H]2C[C@H](COP(=O)(O)O)[C@@H](O)C2)c(=O)[nH]1 [Carbocyclic•2'-deoxyguanosine-6'-monophosphate]
- EC50 ([2]; Human alphaherpesvirus 1, 72 h; concentration required to reduce the viral cytopathogenic effect by 50%; Vero cells infected with 100 TCID50; observed three days after the infection; read-out: ID50^a)): 0.2 µg/mL (≈ 0.579 µM)
- MCC at 72 h [4]: 50 µg/mL
